Results on 57 molecules are retold here after the RepoRT retention time repository (doi:10.1021/acs.analchem.1c00972).

Series [1] is described as follows: RP, Waters ACQUITY UPLC BEH C18, 100 × 1 mm, 1.7 µm, 50 °C, 0.3 mL/min, estimated dead time 0.17 min; A: water + 0.1% formic acid + 20 mM ammonium formate; B: methanol + 0.1% formic acid + 20 mM ammonium formate; gradient (min/%B) 0/0 15/100 21/100 22/0 30/0. Conditions: stereoisomer not certain.
Series [2] in a line: RP, Waters ACQUITY UPLC BEH C18, 100 × 1 mm, 1.7 µm, 50 °C, 0.3 mL/min, estimated dead time 0.17 min; A: water + 10 mM ammonium bicarbonate; B: 10% water + 90% methanol + 10 mM ammonium bicarbonate; gradient (min/%B) 0/0 15/100 21/100 22/0 30/0. Conditions: stereoisomer not certain.

`CC=C(C)C(=O)OC1CC[N+]2([O-])CC=C(COC(=O)C(O)(C(C)OC)C(C)(C)O)C12` (centres undefined) [Lasiocarpine N-oxide]: the LC retention time in series [1] was 11 min; in series [2], 11.7 min.

Consider `CC=C(C)C(=O)OC1CCN2CC=C(COC(=O)C(O)(C(C)OC)C(C)(C)O)C12` (centres undefined) [Lasiocarpine], for which the LC retention time in series [1] is 10.4 min; in series [2], 13.9 min.

Turning to `C=C1CCC2C(C=C(C)C(=O)C3(O)CC(C)C(O)C3C1O)C2(C)C` (centres undefined) [Lathyrol], the LC retention time in series [1] was 14.7 min; in series [2], 15 min.

`CCCCCCCCCCCC(=O)NCC(C)O` (centres undefined) [Lauric isopropanolamide]: the LC retention time in series [1] is 16.7 min; in series [2] it was 17.1 min.

As for `CCCCCCCCCCCC(=O)N(CCO)CCO` [Lauryl diethanolamide], the results for the LC retention time in series [1] and in series [2] were 16.4 min and 16.8 min, respectively.

On to `c1ccc(C2CN3CCSC3=N2)cc1` (centres undefined) [Levamisole], for which the LC retention time in series [1] was 6.7 min; in series [2] it was 11.8 min.

`CC(=O)NCC1CN(c2ccc(N3CCOCC3)c(F)c2)C(=O)O1` (centres undefined) [Linezolid]: the LC retention time in series [1] is 9.9 min; in series [2], 10 min.

For `CN(C)C(=O)C(CCN1CCC(O)(c2ccc(Cl)cc2)CC1)(c1ccccc1)c1ccccc1` [Loperamide], the values for the LC retention time in series [1] and in series [2] were 13.7 min and 16.3 min, respectively.

Consider `O=C1Nc2ccc(Cl)cc2C(c2ccccc2Cl)=NC1O` (centres undefined) [Lorazepam], for which the LC retention time in series [1] was 13.2 min; in series [2] it was 13.5 min.

For the molecule `CCC(C)C(=O)OC1CC(C)C=C2C=CC(C)C(CCC3CC(O)CC(=O)O3)C21` (centres undefined) [Lovastatin], the results for the LC retention time in series [1] and in series [2] were 16.8 min and 17.2 min, respectively.

Consider `OC1C=C2CCN3Cc4cc5c(cc4C(C1O)C23)OCO5` (centres undefined) [Lycorine], for which the values for the LC retention time in series [1] and in series [2] were 4.33 min and 9.11 min, respectively.

For the molecule `CNCCCC12CCC(c3ccccc31)c1ccccc12` [Maprotiline], the results for the LC retention time in series [1] and in series [2] were 12.8 min and 15.4 min, respectively.

In the case of `O=C1CCCC2C3CCCN4CCCC(CN12)C34` (centres undefined) [Matrine], the LC retention time is 5.2 min in series [1] and 13 min in series [2].

On to `COC(=O)Nc1nc2ccc(C(=O)c3ccccc3)cc2[nH]1` [Mebendazole], for which the results for the LC retention time in series [1] and in series [2] were 12.5 min and 12.9 min, respectively.

On to `CCN(CCCCOC(=O)c1ccc(OC)c(OC)c1)C(C)Cc1ccc(OC)cc1` (centres undefined) [Mebeverine], for which the figures for the LC retention time in series [1] and in series [2] were 12.1 min and 17.1 min, respectively.

On to `CN1CCN=C(c2ccccc2)c2cc(Cl)ccc21` [Medazepam], for which the LC retention time was 11.4 min in series [1] and 16.4 min in series [2].

As to `CC(=O)C1(O)CCC2C3CC(C)C4=CC(=O)CCC4(C)C3CCC21C` (centres undefined) [Medroxyprogesterone], the LC retention time in series [1] was 15.2 min; in series [2], 15.5 min.

`CC(=O)OC1(C(C)=O)CCC2C3CC(C)C4=CC(=O)CCC4(C)C3CCC21C` (centres undefined) [Medroxyprogesteroneacetate]: the LC retention time was 15.4 min in series [1] and 15.8 min in series [2].

As to `CN(C(=O)COc1nc2ccccc2s1)c1ccccc1` [Mefenacet], the figures for the LC retention time in series [1] and in series [2] were 14.6 min and 14.9 min, respectively.

`CC(=O)OC1(C(C)=O)CCC2C3C=C(C)C4=CC(=O)CCC4(C)C3CCC21C` (centres undefined) [Megestrol-17-acetate]: the results for the LC retention time in series [1] and in series [2] were 15.3 min and 15.6 min, respectively.

Consider `CC1CCN(CCCC(=O)c2ccc(F)cc2)CC1` [Melperon], for which the LC retention time in series [1] was 10 min; in series [2] it was 15.4 min.

Consider `CC12CC3CC(C)(C1)CC(N)(C3)C2` [Memantine], for which the values for the LC retention time in series [1] and in series [2] were 11.9 min and 13.7 min, respectively.

`CCOC(=O)C1(c2ccccc2)CCN(C)CC1` [Meperidine]: the LC retention time is 9.63 min in series [1] and 14.2 min in series [2].

As to `Cc1cccc(C)c1NC(=O)C1CCCCN1C` (centres undefined) [Mepivacaine], the LC retention time was 8.36 min in series [1] and 13.1 min in series [2].

Consider `CNC(=O)N(C)c1nc2ccccc2s1` [Methabenzthiazuron], for which the LC retention time in series [1] is 12.7 min; in series [2], 13 min.

For `CCC(=O)C(CC(C)N(C)C)(c1ccccc1)c1ccccc1` (centres undefined) [Methadone], the LC retention time in series [1] is 13.1 min; in series [2] it was 18.2 min.

As for `Cn1cc[nH]c1=S` [Methimazol], the LC retention time is 2.75 min in series [1] and 2.82 min in series [2].

As for `CNC(=O)Oc1cc(C)c(S(C)(=O)=O)c(C)c1` [Methiocarb sulfone], the LC retention time was 9.58 min in series [1] and 9.75 min in series [2].

As to `COc1ccccc1OCC(O)COC(N)=O` (centres undefined) [Methocarbamol], the LC retention time in series [1] is 9.52 min; in series [2], 9.71 min.

As to `COCCCNc1nc(NC(C)C)nc(SC)n1` [Methoprothryne], the LC retention time in series [1] was 13.1 min; in series [2] it was 14.2 min.

With `CN(Cc1cnc2nc(N)nc(N)c2n1)c1ccc(C(=O)NC(CCC(=O)O)C(=O)O)cc1` (centres undefined) [Methotrexate], the LC retention time in series [1] is 7.89 min; in series [2] it was 6.74 min.

Consider `CN1C(=O)CC(C)(c2ccccc2)C1=O` (centres undefined) [Methsuximide], for which the LC retention time was 11.2 min in series [1] and 11.4 min in series [2].

`CCc1cccc(C)c1N1C(=O)COCC1C` (centres undefined) [Metolachlor-morpholinone]: the LC retention time was 12.6 min in series [1] and 12.9 min in series [2].

With `COCCc1ccc(OCC(O)CNC(C)C)cc1` (centres undefined) [Metoprolol], the values for the LC retention time in series [1] and in series [2] were 9.58 min and 12.4 min, respectively.

As for `COc1cc(OC)n2nc(S(=O)(=O)Nc3c(Cl)ccc(C)c3Cl)nc2n1` [Metosulam], the LC retention time in series [1] was 12 min; in series [2], 10.9 min.

Take `COc1ccc(NC(=O)N(C)C)cc1Cl` [Metoxuron]: the figures for the LC retention time in series [1] and in series [2] were 10.6 min and 10.7 min, respectively.

Regarding `COc1cc(C)c(C(=O)c2c(OC)ccc(Br)c2C)c(OC)c1OC` [Metrafenone], the LC retention time in series [1] was 16 min; in series [2], 16.4 min.

Consider `CNC(=O)Oc1cc(C)c(N(C)C)c(C)c1` [Mexacarbate], for which the results for the LC retention time in series [1] and in series [2] were 8.62 min and 14.8 min, respectively.

For `Clc1ccc(COC(Cn2ccnc2)c2ccc(Cl)cc2Cl)c(Cl)c1` (centres undefined) [Miconazole], the LC retention time in series [1] was 15.7 min; in series [2], 18 min.

As to `Cc1ncc2n1-c1ccc(Cl)cc1C(c1ccccc1F)=NC2` [Midazolam], the LC retention time was 11.4 min in series [1] and 14.6 min in series [2].

For `CN1CCN2c3ncccc3Cc3ccccc3C2C1` (centres undefined) [Mirtazapine], the LC retention time was 9.7 min in series [1] and 14.9 min in series [2].

For the molecule `CC1C(=O)OC2CCN3CC=C(COC(=O)C(C)(O)C1(C)O)C23` (centres undefined) [Monocrotaline], the LC retention time in series [1] is 5.17 min; in series [2] it was 8.97 min.

Consider `CN1CCC23c4c5ccc(O)c4OC2C(O)C=CC3C1C5` (centres undefined) [Morphine], for which the results for the LC retention time in series [1] and in series [2] were 4.19 min and 10.4 min, respectively.

Consider `CON=C1CC2(CC3CC(CC=C(C)CC(C)C=CC=C4COC5C(O)C(C)=CC(C(=O)O3)C45O)O2)OC(C(C)=CC(C)C)C1C` (centres undefined) [Moxidectin], for which the LC retention time was 18.6 min in series [1] and 19 min in series [2].

For `COc1c(C(C)(C)C)cc([N+](=O)[O-])c(C)c1[N+](=O)[O-]` [Musk ambrette], the LC retention time was 8.38 min in series [1] and 6.58 min in series [2].

Regarding `CCCCCCCCCC(=O)N(C)C` [N,N-Dimethyldecan-1-amide], the LC retention time in series [1] was 16.1 min; in series [2], 16.5 min.

As for `CCCCCCCCCC[N+](C)(C)[O-]` [N,N-Dimethyldecylamine-N-oxide], the LC retention time in series [1] is 13.8 min; in series [2] it was 15.2 min.

On to `CC(C)CC(C)Nc1ccc(Nc2ccccc2)cc1` (centres undefined) [N-(1,3-Dimethylbutyl)-N'-phenyl-1,4-phenylenediamine], for which the LC retention time was 13.3 min in series [1] and 17.2 min in series [2].

Regarding `CN=CNc1ccc(C)cc1C` [N-(2,4-Dimethylphenyl)-N-methyl-formamidine], the results for the LC retention time in series [1] and in series [2] were 7.83 min and 12.1 min, respectively.

As to `CC(=O)N(C)c1ccc(N)cc1` [N-(4-Aminophenyl)-N-methyl-acetamid], the LC retention time is 5.17 min in series [1] and 7.24 min in series [2].

Regarding `CCNS(=O)(=O)c1ccccc1C` [N-Ethyl-o-toluenesulfonamide], the LC retention time in series [1] is 11.4 min; in series [2] it was 11.6 min.

On to `CN(C1CCCCC1)C1CCCCC1` [N-Methyl-dicyclohexylamine], for which the LC retention time in series [1] is 9.22 min; in series [2], 13.1 min.

Consider `CCCCCCCCCCCCNC` [N-Methyldodecylamine], for which the LC retention time is 15.2 min in series [1] and 17.7 min in series [2].

For the molecule `O=NN1CCOCC1` [N-Nitrosomorpholine], the LC retention time is 3.69 min in series [1] and 3.78 min in series [2].

Consider `c1ccc2sc(NC3CCCCC3)nc2c1` [N-cyclohexyl-2-benzothiazole-amine], for which the LC retention time in series [1] was 14.1 min; in series [2] it was 15.8 min.

On to `COP(=O)(OC)OC(Br)C(Cl)(Cl)Br` (centres undefined) [Naled], for which the LC retention time in series [1] was 13.3 min; in series [2], 13.6 min.

Regarding `COc1ccc2cc(C(C)C(=O)O)ccc2c1` (centres undefined) [Naproxen], the LC retention time in series [1] is 13.8 min; in series [2] it was 11 min.
